The target in assay [1] is Ribosomal protein S6 kinase alpha-4 (Homo sapiens) (UniProt O75676). The experiment in a line: Selectivity interaction (SelectScreen profiling (Invitrogen)) EUB0000607a RPS6KA4. The following applies: at 2 µM.
In assay [2] the target is Calcium/calmodulin-dependent protein kinase kinase 2 (Homo sapiens) (UniProt Q96RR4). The experiment in a line: Selectivity interaction (KinomeScan (DiscoverX)) EUB0000229b CAMKK2. Conditions: at 10 µM.
Assay [3] deals with T1, Inhibitor of nuclear factor kappa-B kinase subunit alpha (Homo sapiens) (UniProt O15111).
T1 sequence (whole entry): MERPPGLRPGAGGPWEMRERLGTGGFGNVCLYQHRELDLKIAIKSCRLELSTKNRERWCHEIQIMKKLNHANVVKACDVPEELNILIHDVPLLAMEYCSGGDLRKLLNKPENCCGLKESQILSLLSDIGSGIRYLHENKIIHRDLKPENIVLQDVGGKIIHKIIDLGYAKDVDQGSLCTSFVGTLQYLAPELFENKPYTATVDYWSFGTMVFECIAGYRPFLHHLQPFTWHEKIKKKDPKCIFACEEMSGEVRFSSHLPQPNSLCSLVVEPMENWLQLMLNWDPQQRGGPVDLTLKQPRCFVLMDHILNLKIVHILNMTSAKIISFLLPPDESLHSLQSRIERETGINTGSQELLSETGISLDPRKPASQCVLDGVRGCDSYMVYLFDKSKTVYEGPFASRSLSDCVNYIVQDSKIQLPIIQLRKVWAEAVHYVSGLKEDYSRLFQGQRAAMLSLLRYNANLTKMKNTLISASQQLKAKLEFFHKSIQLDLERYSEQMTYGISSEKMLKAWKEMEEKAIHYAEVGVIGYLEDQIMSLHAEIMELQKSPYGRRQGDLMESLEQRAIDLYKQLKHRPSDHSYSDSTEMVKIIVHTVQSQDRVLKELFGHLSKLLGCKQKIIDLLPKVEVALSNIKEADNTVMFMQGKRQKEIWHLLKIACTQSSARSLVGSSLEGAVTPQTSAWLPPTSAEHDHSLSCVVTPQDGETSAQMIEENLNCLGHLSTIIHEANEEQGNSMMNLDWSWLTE
In words: Selectivity interaction (KinomeScan (DiscoverX)) EUB0000229b CHUK. Conditions: at 10 µM.

The nature of assay [4]: Selectivity interaction (KinomeScan (DiscoverX)) EUB0001079a CDK2H. The following applies: at 1 µM.
For assay [5], the target named is Platelet-derived growth factor receptor beta (Homo sapiens, UniProt P09619). The experiment in a line: Selectivity interaction (KinomeScan (DiscoverX)) EUB0001619a PDGFRB. The following applies: at 1 µM.
In assay [6] the target is Tyrosine-protein kinase BTK (Homo sapiens, UniProt Q06187). In words: Selectivity interaction (ActivX KiNativ screen (kinase selectivity in THP-1 cell lysates)) EUB0000639a BTK. The format is subcellular. The following applies: lysate, at 0.04 µM.
Chain of Tyrosine-protein kinase BTK (Q06187 whole entry): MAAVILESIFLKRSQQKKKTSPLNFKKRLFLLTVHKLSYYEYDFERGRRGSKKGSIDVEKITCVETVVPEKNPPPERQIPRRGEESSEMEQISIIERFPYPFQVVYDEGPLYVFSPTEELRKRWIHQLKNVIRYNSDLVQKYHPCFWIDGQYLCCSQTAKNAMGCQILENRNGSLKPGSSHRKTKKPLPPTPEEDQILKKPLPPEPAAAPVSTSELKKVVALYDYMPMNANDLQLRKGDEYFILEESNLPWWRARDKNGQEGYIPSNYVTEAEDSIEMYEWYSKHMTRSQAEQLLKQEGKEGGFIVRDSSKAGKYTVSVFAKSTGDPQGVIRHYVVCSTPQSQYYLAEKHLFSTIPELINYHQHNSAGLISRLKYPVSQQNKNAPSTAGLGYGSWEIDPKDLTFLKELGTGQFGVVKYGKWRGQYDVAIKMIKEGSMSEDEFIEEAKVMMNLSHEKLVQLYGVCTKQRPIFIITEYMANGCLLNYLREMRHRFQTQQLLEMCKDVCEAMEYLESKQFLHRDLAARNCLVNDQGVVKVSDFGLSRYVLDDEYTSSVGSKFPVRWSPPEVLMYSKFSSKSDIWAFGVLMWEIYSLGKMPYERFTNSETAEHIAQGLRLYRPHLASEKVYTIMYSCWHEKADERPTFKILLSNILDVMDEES
Assay [7] has as its target Mitogen-activated protein kinase kinase kinase 9 (Homo sapiens) (UniProt P80192). In words: Selectivity interaction (KinomeScan (DiscoverX)) EUB0001049a MAP3K9. Conditions: at 1 µM.
The target of assay [8] is Tyrosine-protein kinase Lck (Homo sapiens, UniProt P06239). The experiment in a line: Selectivity interaction (ProQinase) EUB0000171b LCK.
Chain of Tyrosine-protein kinase Lck (P06239 2-509 limits assumed): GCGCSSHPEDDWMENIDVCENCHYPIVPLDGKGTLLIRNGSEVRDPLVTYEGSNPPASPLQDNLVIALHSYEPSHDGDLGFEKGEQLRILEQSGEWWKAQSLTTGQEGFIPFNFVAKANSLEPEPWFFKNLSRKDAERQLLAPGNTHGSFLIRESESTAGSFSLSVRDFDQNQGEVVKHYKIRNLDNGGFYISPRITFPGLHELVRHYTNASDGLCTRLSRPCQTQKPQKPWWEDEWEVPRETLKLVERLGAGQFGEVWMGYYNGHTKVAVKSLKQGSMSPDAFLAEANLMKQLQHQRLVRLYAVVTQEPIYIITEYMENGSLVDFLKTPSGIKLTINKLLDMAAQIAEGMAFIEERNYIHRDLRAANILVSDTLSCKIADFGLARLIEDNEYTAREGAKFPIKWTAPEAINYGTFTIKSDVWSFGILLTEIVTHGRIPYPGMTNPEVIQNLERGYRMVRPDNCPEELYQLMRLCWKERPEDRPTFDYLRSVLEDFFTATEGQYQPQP
Assay [9] concerns the target Serine/threonine-protein kinase PAK 4 (Homo sapiens, UniProt O96013). The experiment in a line: Selectivity interaction (ProQinase) EUB0000171b PAK4.
The target in assay [10] is T2, NUAK family SNF1-like kinase 1 (Homo sapiens) (UniProt O60285).
T2 sequence (whole entry): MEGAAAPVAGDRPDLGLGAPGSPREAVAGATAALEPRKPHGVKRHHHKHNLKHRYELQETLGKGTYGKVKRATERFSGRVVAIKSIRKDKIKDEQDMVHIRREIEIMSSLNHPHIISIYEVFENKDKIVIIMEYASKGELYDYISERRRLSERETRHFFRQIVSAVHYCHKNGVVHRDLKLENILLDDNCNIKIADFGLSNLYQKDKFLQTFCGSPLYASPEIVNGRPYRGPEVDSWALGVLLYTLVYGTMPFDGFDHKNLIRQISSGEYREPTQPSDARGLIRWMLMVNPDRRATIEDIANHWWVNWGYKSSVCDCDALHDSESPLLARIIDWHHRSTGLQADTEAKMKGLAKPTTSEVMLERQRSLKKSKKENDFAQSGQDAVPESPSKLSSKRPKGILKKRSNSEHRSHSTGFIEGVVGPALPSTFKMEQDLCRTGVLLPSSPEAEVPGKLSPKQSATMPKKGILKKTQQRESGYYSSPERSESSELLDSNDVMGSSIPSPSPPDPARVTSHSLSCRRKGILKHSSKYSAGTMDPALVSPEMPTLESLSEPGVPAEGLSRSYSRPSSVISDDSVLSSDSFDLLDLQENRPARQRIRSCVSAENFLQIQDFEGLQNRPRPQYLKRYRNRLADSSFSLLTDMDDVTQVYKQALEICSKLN
In words: Selectivity interaction (KinomeScan (DiscoverX)) EUB0000045b NUAK1.

Assay [11] concerns Fibroblast growth factor receptor 3 (Homo sapiens), P22607 [G697C]. In words: (§1) Selectivity interaction (KinomeScan (DiscoverX)) EUB0000595a FGFR3. Conditions: at 10 µM.
Chain of Fibroblast growth factor receptor 3 (Homo sapiens), P22607 [G697C] (P22607 whole entry G697C): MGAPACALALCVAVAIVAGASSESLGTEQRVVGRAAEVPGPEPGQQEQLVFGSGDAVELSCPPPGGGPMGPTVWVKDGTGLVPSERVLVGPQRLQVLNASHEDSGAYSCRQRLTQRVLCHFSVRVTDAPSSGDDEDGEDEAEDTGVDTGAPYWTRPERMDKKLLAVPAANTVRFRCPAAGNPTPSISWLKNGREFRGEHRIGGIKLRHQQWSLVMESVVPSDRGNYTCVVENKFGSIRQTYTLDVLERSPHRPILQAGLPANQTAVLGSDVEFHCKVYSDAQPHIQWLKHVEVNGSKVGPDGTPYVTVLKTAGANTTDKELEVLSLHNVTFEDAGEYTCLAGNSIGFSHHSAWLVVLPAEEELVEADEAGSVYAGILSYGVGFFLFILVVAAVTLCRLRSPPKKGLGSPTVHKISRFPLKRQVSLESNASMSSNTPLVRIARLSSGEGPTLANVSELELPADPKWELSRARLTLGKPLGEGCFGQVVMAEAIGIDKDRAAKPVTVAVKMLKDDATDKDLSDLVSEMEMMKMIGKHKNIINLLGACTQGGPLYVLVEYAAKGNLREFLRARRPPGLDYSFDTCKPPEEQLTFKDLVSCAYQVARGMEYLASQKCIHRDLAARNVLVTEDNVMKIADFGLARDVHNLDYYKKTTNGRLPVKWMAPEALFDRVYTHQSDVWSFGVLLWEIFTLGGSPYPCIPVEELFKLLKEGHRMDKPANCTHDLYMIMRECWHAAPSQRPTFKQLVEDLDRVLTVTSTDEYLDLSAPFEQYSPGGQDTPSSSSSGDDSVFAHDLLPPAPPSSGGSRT
Assay [12] has as its target Fibroblast growth factor receptor 3 (Homo sapiens, UniProt P22607). The assay is described as §1. Conditions: at 10 µM.
Assay [13] concerns the target T3, Serine/threonine-protein kinase BRSK1 (Homo sapiens) (UniProt Q8TDC3).
T3 sequence (whole entry): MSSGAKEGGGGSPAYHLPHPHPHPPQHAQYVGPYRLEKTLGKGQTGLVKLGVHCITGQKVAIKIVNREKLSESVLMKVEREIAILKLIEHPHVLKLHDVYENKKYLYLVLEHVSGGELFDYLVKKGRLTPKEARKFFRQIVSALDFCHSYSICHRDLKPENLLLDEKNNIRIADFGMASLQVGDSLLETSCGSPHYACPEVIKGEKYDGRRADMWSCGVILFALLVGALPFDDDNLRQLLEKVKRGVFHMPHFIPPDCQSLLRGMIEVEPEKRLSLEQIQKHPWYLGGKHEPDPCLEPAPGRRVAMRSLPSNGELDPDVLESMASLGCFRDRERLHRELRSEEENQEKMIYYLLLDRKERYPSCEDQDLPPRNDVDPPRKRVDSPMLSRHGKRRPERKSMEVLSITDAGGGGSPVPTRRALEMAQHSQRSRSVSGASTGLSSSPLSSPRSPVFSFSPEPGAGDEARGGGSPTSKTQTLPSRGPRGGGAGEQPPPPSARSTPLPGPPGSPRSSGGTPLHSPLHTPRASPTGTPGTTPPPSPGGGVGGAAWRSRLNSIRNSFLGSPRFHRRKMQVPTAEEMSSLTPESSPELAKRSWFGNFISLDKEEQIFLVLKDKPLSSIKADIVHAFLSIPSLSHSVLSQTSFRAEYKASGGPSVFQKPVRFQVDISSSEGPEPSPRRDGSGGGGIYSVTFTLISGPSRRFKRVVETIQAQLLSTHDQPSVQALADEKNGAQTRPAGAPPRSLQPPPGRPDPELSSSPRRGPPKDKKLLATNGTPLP
The following applies: at 10 µM.

Our source for the % of inhibition, % binding and % of control values is ChEMBL document CHEMBL5465560, “Selectivity Literature for EUbOPEN Chemogenomic Library” (2024).

Chain of Serine/threonine-protein kinase PAK 4 (O96013 whole entry, looked up): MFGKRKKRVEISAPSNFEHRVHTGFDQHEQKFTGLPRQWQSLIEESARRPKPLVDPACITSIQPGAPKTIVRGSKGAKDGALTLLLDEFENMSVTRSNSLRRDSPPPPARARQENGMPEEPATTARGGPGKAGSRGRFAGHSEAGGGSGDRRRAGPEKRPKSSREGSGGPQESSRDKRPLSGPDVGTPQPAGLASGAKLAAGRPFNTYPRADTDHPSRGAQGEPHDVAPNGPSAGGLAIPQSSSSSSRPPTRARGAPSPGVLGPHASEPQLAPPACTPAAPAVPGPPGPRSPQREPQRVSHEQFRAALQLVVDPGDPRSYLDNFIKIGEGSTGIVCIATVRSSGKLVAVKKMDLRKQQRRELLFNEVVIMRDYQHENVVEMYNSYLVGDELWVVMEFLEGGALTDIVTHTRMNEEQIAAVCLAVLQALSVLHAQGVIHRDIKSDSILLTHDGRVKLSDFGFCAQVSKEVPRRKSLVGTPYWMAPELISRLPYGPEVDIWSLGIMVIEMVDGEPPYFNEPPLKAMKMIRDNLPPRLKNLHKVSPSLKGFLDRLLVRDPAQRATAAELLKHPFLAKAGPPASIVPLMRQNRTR
Chain of Calcium/calmodulin-dependent protein kinase kinase 2 (Homo sapiens) (Q96RR4 2-588 limits assumed): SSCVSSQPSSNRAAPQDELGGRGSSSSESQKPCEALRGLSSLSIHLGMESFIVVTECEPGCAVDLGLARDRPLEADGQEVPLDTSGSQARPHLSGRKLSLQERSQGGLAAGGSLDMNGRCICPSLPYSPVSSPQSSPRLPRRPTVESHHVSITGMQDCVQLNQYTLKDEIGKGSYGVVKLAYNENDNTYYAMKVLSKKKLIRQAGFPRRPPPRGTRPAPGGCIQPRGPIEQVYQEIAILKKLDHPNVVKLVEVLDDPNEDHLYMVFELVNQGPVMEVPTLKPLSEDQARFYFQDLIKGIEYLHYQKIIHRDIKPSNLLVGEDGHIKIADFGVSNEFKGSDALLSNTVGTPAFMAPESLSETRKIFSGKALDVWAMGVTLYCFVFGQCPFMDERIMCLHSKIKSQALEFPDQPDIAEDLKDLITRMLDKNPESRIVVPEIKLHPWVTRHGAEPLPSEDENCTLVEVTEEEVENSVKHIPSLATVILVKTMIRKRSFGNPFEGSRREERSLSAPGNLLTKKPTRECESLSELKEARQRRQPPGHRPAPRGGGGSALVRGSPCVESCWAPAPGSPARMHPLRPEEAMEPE
Chain of Fibroblast growth factor receptor 3 (P22607 23-806 limits assumed): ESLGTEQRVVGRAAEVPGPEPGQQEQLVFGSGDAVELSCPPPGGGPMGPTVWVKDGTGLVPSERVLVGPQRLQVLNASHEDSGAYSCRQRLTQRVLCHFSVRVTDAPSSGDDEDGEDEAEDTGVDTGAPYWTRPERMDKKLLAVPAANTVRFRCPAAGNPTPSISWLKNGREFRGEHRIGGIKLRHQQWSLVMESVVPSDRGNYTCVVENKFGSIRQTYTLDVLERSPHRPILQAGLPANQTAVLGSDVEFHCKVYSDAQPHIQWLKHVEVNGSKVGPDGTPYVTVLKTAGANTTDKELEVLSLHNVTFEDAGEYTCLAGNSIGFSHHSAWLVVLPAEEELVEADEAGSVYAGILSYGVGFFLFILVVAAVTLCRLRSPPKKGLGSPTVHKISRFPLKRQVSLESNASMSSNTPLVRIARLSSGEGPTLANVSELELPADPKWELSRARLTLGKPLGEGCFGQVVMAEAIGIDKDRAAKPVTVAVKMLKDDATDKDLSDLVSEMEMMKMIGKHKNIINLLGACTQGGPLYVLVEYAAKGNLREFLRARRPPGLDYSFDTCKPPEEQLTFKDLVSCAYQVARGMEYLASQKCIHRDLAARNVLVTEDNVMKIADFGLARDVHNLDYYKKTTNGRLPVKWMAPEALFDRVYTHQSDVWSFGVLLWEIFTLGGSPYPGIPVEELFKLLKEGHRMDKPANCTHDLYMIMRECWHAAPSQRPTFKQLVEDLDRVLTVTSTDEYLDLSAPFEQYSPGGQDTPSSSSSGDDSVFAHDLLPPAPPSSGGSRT
Chain of Mitogen-activated protein kinase kinase kinase 9 (Homo sapiens) (P80192 whole entry, looked up): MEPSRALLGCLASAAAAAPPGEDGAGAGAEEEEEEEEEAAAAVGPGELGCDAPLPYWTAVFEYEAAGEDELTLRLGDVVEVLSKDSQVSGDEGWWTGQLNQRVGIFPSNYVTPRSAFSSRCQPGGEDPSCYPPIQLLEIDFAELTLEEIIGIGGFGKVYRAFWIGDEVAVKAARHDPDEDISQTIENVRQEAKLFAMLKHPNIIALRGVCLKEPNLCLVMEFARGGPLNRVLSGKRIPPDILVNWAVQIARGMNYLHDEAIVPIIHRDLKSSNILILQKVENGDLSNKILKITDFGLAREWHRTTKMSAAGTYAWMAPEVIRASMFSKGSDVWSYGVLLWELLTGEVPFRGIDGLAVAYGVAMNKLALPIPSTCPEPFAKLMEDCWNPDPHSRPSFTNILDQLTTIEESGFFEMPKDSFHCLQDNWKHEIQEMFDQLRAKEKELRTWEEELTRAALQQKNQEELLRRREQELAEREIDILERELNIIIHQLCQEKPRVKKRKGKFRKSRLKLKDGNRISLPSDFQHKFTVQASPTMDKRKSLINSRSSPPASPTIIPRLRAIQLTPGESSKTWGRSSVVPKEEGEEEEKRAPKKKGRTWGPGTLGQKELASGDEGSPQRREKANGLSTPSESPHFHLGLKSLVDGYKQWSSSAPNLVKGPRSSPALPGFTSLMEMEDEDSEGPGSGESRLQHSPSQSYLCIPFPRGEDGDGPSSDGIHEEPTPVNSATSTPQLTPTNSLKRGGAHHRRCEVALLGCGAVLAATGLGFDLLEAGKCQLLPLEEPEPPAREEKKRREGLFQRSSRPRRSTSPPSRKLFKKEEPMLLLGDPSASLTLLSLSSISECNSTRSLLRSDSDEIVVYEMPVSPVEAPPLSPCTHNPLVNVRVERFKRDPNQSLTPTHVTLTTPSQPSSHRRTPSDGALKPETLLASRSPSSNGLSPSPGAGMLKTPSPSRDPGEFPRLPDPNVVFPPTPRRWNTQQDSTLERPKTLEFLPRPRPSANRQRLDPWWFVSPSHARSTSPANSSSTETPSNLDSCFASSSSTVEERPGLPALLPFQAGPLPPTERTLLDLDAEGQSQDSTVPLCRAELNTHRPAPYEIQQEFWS

Regarding `CNC(=O)Nc1ccc(-c2nc(N3CC4CCC(C3)O4)c3cnn(C4CCC5(CC4)OCCO5)c3n2)cc1`, the % of inhibition in assay [1] stood at 1%.
Consider `COc1cc(N(C)c2ccnc3ccc(C(F)(F)F)cc23)cc(OC)c1OC`, for which the % binding was determined as 85% in assay [2] and 92% in [3].
`Nc1cnc(N2CCc3cc(S(=O)(=O)Nc4c(F)cc(Cl)cc4F)cc(N4CCCC4=O)c32)nc1` [TP-020n]: the % of control in assay [4] worked out at 100%.
In the case of `N#Cc1cccc(-c2c[nH]c3ncnc(N4CCOCC4)c23)c1`, in [5], the % of control turned out to be 90%.
`CC[C@@H]1[C@H](F)C(=O)N[C@@H]1COc1nccc2cc(C(N)=O)c(OC)cc12` [ZIMLOVISERTIB]: the % of inhibition in assay [6] is -17.7%.
As to `COc1cc(Nc2nc(C)cc(-c3cnn4nc(OC)ccc34)n2)cc(C(F)(F)F)c1`, the % of control in [7] is 96%.
`C=CC(=O)Nc1cccc(C(=O)Nc2ccc(Nc3cc(-c4[nH]c(SC)nc4C)ccn3)cc2)c1`: the % of control was 85% in assay [8] (at 1 µM), 89% in assay [8] (at 5 µM), 92% in assay [9] (at 1 µM) and 76% in assay [9] (at 5 µM).
For the compound `C=CC(=O)Nc1cc(-n2c(=O)ccc3cnc4ccc(-c5ccc(NS(C)(=O)=O)cc5)cc4c32)ccc1C`, the % of control came out at 100% in [10] (at 1 µM) and 76% in assay [10] (at 10 µM).
As for `COCC(=O)NC/C=C/c1ccc2ncnc(Nc3ccc(Oc4ccc(C)nc4)c(C)c3)c2c1` [CP-724714], the % of control in [11] is 90%; in [12], 100%; in assay [13], 100%.
